Results published in US11154529B2, “Phosphaplatin liquid formulations” (Phosplatin Therapeutics Inc., priority 2016, dated 2021).

Assay: Ready-to-use formulation stability at 2-8° C., 5 mg/mL (R,R)-pyrodach-2 in 10 mM Potassium Phosphate Buffer at pH 7.2, 10 mL vials
Assay type: physicochemical
Experimental: A scalable and commercially viable process for the manufacture of a ready-to-use formulation of (R,R)-pyrodach-2 in 10 mM buffer adjusted to a pH of 7.0-7.5 comprises the steps of: a) preparing a 10 mM aqueous solution of buffer; b) adding sufficient hydroxide base to effect neutralization of the added (R,R)-pyrodach-2 to reach a pH of about 7; c) adding (R,R)-pyrodach-2 and allowing it to dissolve; d) if necessary adding additional hydroxide to adjust the pH into a range of about 7.0-7.5; and e) filtering the solution under sterile conditions, filling the solution into glass vials, and covering it with a stopper and/or a cap. Stability data on two large batches of 5 mg/mL (R,R)-pyrodach-2 in 10 mM potassium phosphate buffer were generated. One such batch at pH=7.2 was evaluated at both 25° C./60% RH and refrigerated (2-8° C.) conditions, with data summarized in Table 4 and Table 5, respectively. […] Similar observations have been made for the ready-to-use liquid formulation at pH7.4, as illustrated in Table 6 and Table 7.
• Transfer 4564.6 mg±0.5 mg of potassium phosphate dibasic, trihydrate to a 2-L volumetric flask. • Fill flask to approximately 75% volume with water, swirl as needed to dissolve all solids. • Volumetrically transfer 32.0 mL of 1N KOH to flask. • Dilute flask to volume with water and mix well. • Record pH of final solution. This is the diluent. • Transfer 7653.1 mg±0.5 mg of (R,R)-pyrodach-2 to a compounding vessel. • Transfer 1500 mL of the diluent to the vessel and stir to dissolve solids. • Record pH of final solution. • Pass entire solution through a 0.22 μm sterile filter membrane into a sterile collection vessel. • Calculate (R,R)-pyrodach-2 solution concentration
To a […] glass beaker equipped with mechanical mixer was add 24645.5 g of sterile water for injection. With agitation 47.03 gm of dibasic potassium phosphate USP was added and the solids allowed to dissolve. To the stirred solution was added 253.8 gm of 1.00 N potassium hydroxide. Sterile water for injection USP (900.0 gm) was used as a rinse to facilitate both additions. With vigorous agitation, (R,R)-pyrodach-2 (201.87 gm) was slowly added and agitation continued until all of the solids dissolved. Sterile water for injection USP (900.0 gm) was used as a rinse to facilitate the addition. The pH was determined to be 6.7. A total of 85 mL of 1.00 N potassium hydroxide was added in 5.0 mL aliquots to adjust the pH to 7.3. The solution was sterile filtered through 0.22μ Millipore Millipack filter and aseptically filled, 10 ml top a vial in 10 mL in 10 cc Wheaton clear molded vails, stoppered with a 20 mm stopper and crimp seal capped.

O=P1(O)OP(=O)(O)[O][Pt]2([NH][C@@H]3CCCC[C@H]3[NH]2)[O]1 (stereo partly drawn) [(R,R)-pyrodach-2, (R,R)-trans-1,2-cyclohexanediamine-(dihydrogenpyrophosphato)platinum(II)]
(DACH) Pt-diaquo (~RRT 0.3) (1 Month): 0.17%
(DACH) Pt-monoaquo (~RRT 0.7) (1 Month): 0.84%
Assay (Potency) (1 Month): 97.7%
PT-112 Dimer (~RRT 4.0) (1 Month): 0.21%
RRT 0.56 (1 Month): 0.11%
Total Related Substances (1 Month): 1%
pH (1 Month): 7.2
(DACH) Pt-diaquo (~RRT 0.3) (2 Month): 0.09%
(DACH) Pt-monoaquo (~RRT 0.7) (2 Month): 0.91%
Assay (Potency) (2 Month): 100.1%
PT-112 Dimer (~RRT 4.0) (2 Month): 0.25%
RRT 0.56 (2 Month): 0.10%
RRT 0.68 (2 Month): 0.06%
Total Related Substances (2 Month): 1%
pH (2 Month): 7.2
(DACH) Pt-diaquo (~RRT 0.3) (3 Month): 0.18%
(DACH) Pt-monoaquo (~RRT 0.7) (3 Month): 0.82%
Assay (Potency) (3 Month): 98.2%
PT-112 Dimer (~RRT 4.0) (3 Month): 0.31%
RRT 0.56 (3 Month): 0.12%
RRT 0.68 (3 Month): 0.05%
RRT 3.1-3.2 (3 Month): 0.08%
Total Related Substances (3 Month): 2%
pH (3 Month): 7.2
(DACH) Pt-diaquo (~RRT 0.3) (4 Month): 0.13%
(DACH) Pt-monoaquo (~RRT 0.7) (4 Month): 0.88%
Assay (Potency) (4 Month): 98.6%
PT-112 Dimer (~RRT 4.0) (4 Month): 0.27%
RRT 0.50 (4 Month): 0.05%
RRT 0.56 (4 Month): 0.13%
RRT 3.1-3.2 (4 Month): 0.07%
Total Related Substances (4 Month): 2%
pH (4 Month): 7.3
(DACH) Pt-diaquo (~RRT 0.3) (6 Month): 0.18%
(DACH) Pt-monoaquo (~RRT 0.7) (6 Month): 0.91%
Assay (Potency) (6 Month): 98.4%
PT-112 Dimer (~RRT 4.0) (6 Month): 0.28%
RRT 0.56 (6 Month): 0.12%
RRT 0.68 (6 Month): 0.05%
RRT 3.1-3.2 (6 Month): 0.10%
Total Related Substances (6 Month): 2%
pH (6 Month): 7.3
Particulate Matter (Light Obscuration) (6 Month, first value): 150 particles per container
Particulate Matter (Light Obscuration) (6 Month, second value): 8 particles particles per container
(DACH) Pt-diaquo (~RRT 0.3) (9 Month): 0.14%
(DACH) Pt-monoaquo (~RRT 0.7) (9 Month): 1.05%
Assay (Potency) (9 Month): 97.8%
PT-112 Dimer (~RRT 4.0) (9 Month): 0.29%
RRT 0.56 (9 Month): 0.16%
RRT 0.68 (9 Month): 0.06%
RRT 3.1-3.2 (9 Month): 0.10%
Total Related Substances (9 Month): 2%
pH (9 Month): 7.2
(DACH) Pt-diaquo (~RRT 0.3) (12 Month): 0.20%
(DACH) Pt-monoaquo (~RRT 0.7) (12 Month): 1.02%
Assay (Potency) (12 Month): 97.8%
PT-112 Dimer (~RRT 4.0) (12 Month): 0.29%
RRT 0.50 (12 Month): 0.06%
RRT 0.56 (12 Month): 0.16%
RRT 0.68 (12 Month): 0.10%
RRT 3.1-3.2 (12 Month): 0.16%
Total Related Substances (12 Month): 2%
pH (12 Month): 7.2
Particulate Matter (Light Obscuration) (12 Month, first value): 236 particles per container
Particulate Matter (Light Obscuration) (12 Month, second value): 4 particles particles per container
(DACH) Pt-diaquo (~RRT 0.3) (15 Month): 0.15%
(DACH) Pt-monoaquo (~RRT 0.7) (15 Month): 0.92%
Assay (Potency) (15 Month): 98.7%
PT-112 Dimer (~RRT 4.0) (15 Month): 0.29%
RRT 0.50 (15 Month): 0.07%
RRT 0.56 (15 Month): 0.19%
RRT 0.68 (15 Month): 0.06%
RRT 3.1-3.2 (15 Month): 0.22%
Total Related Substances (15 Month): 2%
pH (15 Month): 7.2
(DACH) Pt-diaquo (~RRT 0.3) (18 Month): 0.15%
(DACH) Pt-monoaquo (~RRT 0.7) (18 Month): 0.93%
Assay (Potency) (18 Month): 100.3%
PT-112 Dimer (~RRT 4.0) (18 Month): 0.31%
RRT 0.50 (18 Month): 0.07%
RRT 0.56 (18 Month): 0.19%
RRT 0.68 (18 Month): 0.07%
RRT 3.1-3.2 (18 Month): 0.19%
RRT 3.54 (18 Month): 0.05%
Total Related Substances (18 Month): 2%
pH (18 Month): 7.3
(DACH) Pt-diaquo (~RRT 0.3) (24 Month): 0.17%
(DACH) Pt-monoaquo (~RRT 0.7) (24 Month): 0.82%
Assay (Potency) (24 Month): 97.1%
PT-112 Dimer (~RRT 4.0) (24 Month): 0.31%
RRT 0.46 (24 Month): 0.06%
RRT 0.50 (24 Month): 0.22%
RRT 0.56 (24 Month): 0.09%
RRT 0.68 (24 Month): 0.05%
RRT 3.1-3.2 (24 Month): 0.22%
RRT 3.54 (24 Month): 0.11%
Total Related Substances (24 Month): 2%
pH (24 Month): 7.2
Particulate Matter (Light Obscuration) (24 Month, first value): 41 particles per container
Particulate Matter (Light Obscuration) (24 Month, second value): 12 particles per container
(DACH) Pt-diaquo (~RRT 0.3) (30 Month): 0.14%
(DACH) Pt-monoaquo (~RRT 0.7) (30 Month): 0.96%
Assay (Potency) (30 Month): 98.2%
PT-112 Dimer (~RRT 4.0) (30 Month): 0.33%
RRT 0.50 (30 Month): 0.17%
RRT 0.56 (30 Month): 0.19%
RRT 0.68 (30 Month): 0.08%
RRT 3.1-3.2 (30 Month): 0.31%
RRT 3.54 (30 Month): 0.10%
Total Related Substances (30 Month): 2%
pH (30 Month): 7.2
Particulate Matter (Light Obscuration) (30 Month, first value): 62 particles per container
Particulate Matter (Light Obscuration) (30 Month, second value): 6 particles particles per container
(DACH) Pt-diaquo (~RRT 0.3) (36 Month): 0.12%
(DACH) Pt-monoaquo (~RRT 0.7) (36 Month): 1.16%
Assay (Potency) (36 Month): 97.8%
PT-112 Dimer (~RRT 4.0) (36 Month): 0.36%
RRT 0.46 (36 Month): 0.07%
RRT 0.50 (36 Month): 0.23%
RRT 0.56 (36 Month): 0.11%
RRT 0.68 (36 Month): 0.09%
RRT 3.1-3.2 (36 Month): 0.30%
RRT 3.54 (36 Month): 0.14%
Total Related Substances (36 Month): 3%
pH (36 Month): 7.2
(DACH) Pt-diaquo (~RRT 0.3) (Initial): 0.16%
(DACH) Pt-monoaquo (~RRT 0.7) (Initial): 0.98%
Assay (Potency) (Initial): 99.8%
PT-112 Dimer (~RRT 4.0) (Initial): 0.19%
RRT 0.56 (Initial): 0.13%
RRT 0.68 (Initial): 0.05%
Total Related Substances (Initial): 2%
pH (Initial): 7.2
Particulate Matter (Light Obscuration) (Initial, first value): 219 particles per container
Particulate Matter (Light Obscuration) (Initial, second value): 11 particles per container
